How the values were obtained:
Experiment in all cases: relative viability (nuclei count vs DMSO), 5 days (fraction); higher = more cells survive
Nelarabine + Navitoclax = compound: COc1nc(N)nc2c1ncn2[C@@H]1O[C@H](CO)[C@@H](O)[C@@H]1O [Nelarabine] + CC1(C)CCC(c2ccc(Cl)cc2)=C(CN2CCN(c3ccc(C(=O)NS(=O)(=O)c4ccc(N[C@H](CCN5CCOCC5)CSc5ccccc5)c(S(=O)(=O)C(F)(F)F)c4)cc3)CC2)C1 [Navitoclax] (partner 0.5 µM)
Summary of the method: (§1)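 After 5 days of treatment, lung cancer cells in 1536-well plates were fixed and stained in a single step (final 0.05% Triton X-100, 1% formaldehyde, 1 ug/ml Hoechst) and their nuclei counted on 4× images. Treatment had been applied by pin tool the day after seeding as one drug alone or as a fixed anchor-drug dose with five library-drug doses (not always all listed) in √10 steps. Relative viability is the nuclei count of treated wells divided by that of vehicle wells, and values are medians of duplicate plates.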

Adavosertib + Phenformin = compound: C=CCn1c(=O)c2cnc(Nc3ccc(N4CCN(C)CC4)cc3)nc2n1-c1cccc(C(C)(C)O)n1 [Adavosertib] + N=C(N)NC(=N)NCCc1ccccc1 [Phenformin] (partner 250 µM)
Summary of the method: as §1

Adavosertib + Trametinib = compound: C=CCn1c(=O)c2cnc(Nc3ccc(N4CCN(C)CC4)cc3)nc2n1-c1cccc(C(C)(C)O)n1 [Adavosertib] + CC(=O)Nc1cccc(-n2c(=O)n(C3CC3)c(=O)c3c(Nc4ccc(I)cc4F)n(C)c(=O)c(C)c32)c1 [Trametinib] (partner 0.02 µM)
Summary of the method: as §1

Adavosertib + Decitabine = compound: C=CCn1c(=O)c2cnc(Nc3ccc(N4CCN(C)CC4)cc3)nc2n1-c1cccc(C(C)(C)O)n1 [Adavosertib] + Nc1ncn([C@H]2C[C@H](O)[C@@H](CO)O2)c(=O)n1 [Decitabine] (partner 2 µM)
Summary of the method: as §1

| Cell Line | relative viability (Nelarabine + Navitoclax; first compound 0.01 µM) | relative viability (Nelarabine + Navitoclax; first compound 0.03162 µM) | relative viability (Nelarabine + Navitoclax; first compound 0.1 µM) | relative viability (Nelarabine + Navitoclax; first compound 0.3162 µM) | relative viability (Nelarabine + Navitoclax; first compound 1 µM) | relative viability (Adavosertib + Phenformin; first compound 0.01 µM) | relative viability (Adavosertib + Phenformin; first compound 0.03162 µM) | relative viability (Adavosertib + Phenformin; first compound 0.1 µM) | relative viability (Adavosertib + Phenformin; first compound 0.3162 µM) | relative viability (Adavosertib + Trametinib; first compound 0.01 µM) | relative viability (Adavosertib + Trametinib; first compound 0.03162 µM) | relative viability (Adavosertib + Trametinib; first compound 0.1 µM) | relative viability (Adavosertib + Trametinib; first compound 0.3162 µM) | relative viability (Adavosertib + Decitabine; first compound 0.01 µM) | relative viability (Adavosertib + Decitabine; first compound 0.03162 µM) | relative viability (Adavosertib + Decitabine; first compound 0.1 µM) | relative viability (Adavosertib + Decitabine; first compound 0.3162 µM) |
| --- | --- | --- | --- | --- | --- | --- | --- | --- | --- | --- | --- | --- | --- | --- | --- | --- | --- |
| NCI-H1395 | 1.18 | 1.16 | 1.28 | 1.19 | 1.17 | 0.435 | 0.429 | 0.421 | 0.471 | 1.06 | 1.12 | 1.08 | 0.864 | 0.702 | 0.754 | 0.781 | 0.62 |
| LK-2 | 0.975 |  | 1.09 | 0.935 | 0.729 | 0.75 | 0.435 | 0.364 | 0.397 | 0.759 | 0.823 | 0.701 | 0.84 | 0.254 | 0.346 | 0.349 | 0.412 |
| NCI-H520 | 1.32 | 0.999 | 1.28 | 1.18 | 1.37 | 0.667 | 0.547 | 0.657 | 0.757 | 0.797 | 0.65 | 0.634 | 0.629 | 0.488 | 0.525 | 0.555 | 0.473 |
| NCI-H460 |  | 1.68 | 1.42 | 1.37 | 1.17 | 0.523 | 0.566 | 0.493 | 0.317 | 0.179 | 0.137 | 0.197 | 0.124 | 0.569 | 0.449 | 0.512 | 0.393 |
| NCI-H1944 | 1.02 | 0.964 | 1.01 | 0.937 | 0.968 | 0.23 | 0.202 | 0.19 | 0.206 | 0.376 | 0.377 | 0.378 | 0.372 | 0.415 | 0.439 | 0.448 | 0.369 |
| NCI-H1437 | 1.38 | 1.16 | 1.09 | 1.05 | 1.03 | 0.388 | 0.308 | 0.275 | 0.285 | 0.546 | 0.545 | 0.484 | 0.414 | 0.57 | 0.633 | 0.636 | 0.618 |
| NCI-H2087 | 1.02 | 0.944 | 0.971 | 0.9 | 0.979 | 0.456 | 0.442 | 0.525 | 0.461 | 0.217 | 0.204 | 0.207 | 0.2 | 0.24 | 0.347 | 0.276 | 0.277 |
| LU99A | 0.918 | 0.821 | 0.845 | 0.765 | 0.758 | 0.963 | 0.808 | 0.982 | 0.826 | 0.624 | 0.61 | 0.634 | 0.464 | 0.942 | 0.912 | 0.846 | 0.69 |
| NCI-H1993 | 1.14 | 0.783 | 0.982 | 1.02 | 0.956 | 0.527 | 0.537 | 0.475 | 0.589 | 0.42 | 0.449 | 0.535 | 0.561 | 0.58 | 0.593 | 0.617 | 0.585 |
| NCI-H2347 | 0.955 | 0.799 | 0.782 | 0.782 | 0.939 | 0.306 | 0.496 | 0.5 | 0.411 | 0.287 | 0.327 | 0.323 | 0.285 | 0.637 | 0.595 | 0.65 | 0.621 |
| NCI-H1734 | 1.06 | 0.787 | 0.962 | 0.869 | 0.833 | 0.411 | 0.367 | 0.374 | 0.264 | 0.64 | 0.726 | 0.711 | 0.711 | 0.501 | 0.511 | 0.474 | 0.363 |
| HCC-44 | 1.27 | 1.09 | 0.985 | 1.05 | 0.966 | 0.255 | 0.237 | 0.192 | 0.181 | 1.08 | 1.05 | 1.19 | 1.12 | 0.935 | 0.935 | 0.975 | 1 |
| LCLC-97TM1 | 0.428 | 0.202 | 0.458 | 0.478 | 0.351 | 0.428 | 0.397 | 0.488 | 0.417 | 0.223 | 0.171 | 0.227 | 0.21 | 0.262 | 0.264 | 0.246 | 0.221 |
| HOP-62 | 1.25 | 1 | 1.06 | 1.08 | 1.11 | 0.698 | 0.621 | 0.802 | 0.769 | 0.357 | 0.406 | 0.356 | 0.384 | 0.27 | 0.239 | 0.229 | 0.223 |
| NCI-H2405 | 1 | 0.902 | 0.687 | 0.744 | 0.84 | 0.458 | 0.414 | 0.405 | 0.396 |  | 0.63 | 0.721 | 0.671 |  | 0.761 | 0.794 | 0.698 |
| HCC-78 | 0.96 | 0.925 |  | 0.955 | 0.901 | 0.582 | 0.744 | 0.821 | 0.704 | 0.859 | 0.737 | 0.888 | 0.852 | 0.661 | 0.679 | 0.731 | 0.618 |

Source: the supplement of paper PMC10307832
